“And” between values parts separate entries of the source, which are not always exact repeats. Equal values may be shown once. Marks after values point to notes of the source that are not given here.
How the values were obtained:
E. coli AID#172 [1] = experiment: Neutropenic murine peritonitis/sepsis model, dose-response and estimation of ED50 (Example 2); format: in vivo, Escherichia coli; parameters: key to Clinical score T = 0 hour / Clinical score T = 5 hours: Score 0: Healthy.; Score 1: Minor clinical signs of infection and inflammation e.g. observations of minor signs of distress or changed activity.; Score 2: Clear signs of infection like, social withdrawal, lack of curiosity, changed body position, piloerection, or changes in pattern of movement.; Score 3: Severe signs of infection like stiff movements, lack of curiosity, changed body position, piloerection, pain, or changes in pattern of movement.; Score 4: Severe pain and the mouse was sacrificed immediately to minimize the suffering of the animal.; Score 5: The mouse was dead
Procedure: (§1) The purpose of this study was to investigate the dose-response relationship following intravenous (i.v.) administration of a single dose of NZ17074 ranging from 0.16-12 mg/kg. The effect was tested against E. coli AID#172 in the neutropenic peritonitis model. Treatment with 40 mg/kg meropenem was included as a positive control group. The colony counts in blood and peritoneal fluid were determined at 5 hours after treatment.
The murine peritonitis/sepsis model is a well-recognized model for studies of antimicrobial activity as described by N. Frimodt-Møller and J. D. Knudsen in Handbook of Animal Models of Infection (1999), ed. by O. Zak & M. A. Sande, Academic Press, San Diego, US.
(§2) • 30 outbred, NMRI female mice, 25-30 grams (Harlan Scandinavia) • E. coli AID#172 from Statens Serum Institute, Copenhagen, Denmark. Clinical isolate from a human wound from 2003. Multiresistant (Ampicillin, Ceftazidime, Aztreonam, Gentamicin, Ciprofloxacin) • NZ17074 in Ringer Acetate, pH 6: 1.2 mg/ml, 6.0 ml. The solution was stored at 4° C. until use. Analyses of the dose formulations used were performed after completion of the in-life phase of the study and gave the following results:
The mice were rendered neutropenic by injecting 0.5 ml cyclophosphamide solution intraperitoneally 4 days (200 mg/kg) and 1 day (100 mg/kg) prior to inoculation.
Fresh overnight E. coli AID#172 colonies from a 5% Horse Blood Agar plate were suspended and diluted in sterile saline to approximately 2×10^6 CFU/ml. One hour before start of treatment (time −1 hr) mice were inoculated intraperitoneally with 0.5 ml of the E. coli suspension in the lateral lower quadrant of the abdomen. Approximately ½-1 hour after treatment, mice were treated orally with 45 microliters neurophen (20 mg ibuprofen/ml corresponding to 30 mg/kg) as a pain relief.
The mice were treated i.v. in the lateral tail vein over approximately 30 seconds with 10 ml/kg with a single dose of NZ17074, meropenem or vehicle at time 0 hour (see Table 1). The dosing was based on a mean weight of 30 g. Mice that weighed 28-32 g received 0.30 ml solution. Mice that weighed 27-28 g received 0.25 ml solution and mice that weighed 32.1-36 g received 0.35 ml solution.
(§3) The mice were observed during the study and scored 0-5 based on their behaviour and clinical signs. • Score 0: Healthy. • Score 1: Minor clinical signs of infection and inflammation e.g. observations of minor signs of distress or changed activity. • Score 2: Clear signs of infection like, social withdrawal, lack of curiosity, changed body position, piloerection, or changes in pattern of movement. • Score 3: Severe signs of infection like stiff movements, lack of curiosity, changed body position, piloerection, pain, or changes in pattern of movement. • Score 4: Severe pain and the mouse was sacrificed immediately to minimize the suffering of the animal. • Score 5: The mouse was dead.
Colony counts were determined from blood and peritoneal fluid at 0 and 5 hours. The mice were anaesthetized with CO2+O2 and blood was collected from axillary cutdown in 1.5 ml EDTA coated eppendorf tubes. The mice were sacrificed immediately after blood sampling and a total of 2 ml sterile saline was injected i.p. and the abdomen gently massaged before it was opened and fluid sampled with a pipette. Each sample was then 10 fold diluted in saline and 20-microliter spots were applied on blue agar plates. All agar plates were incubated 18-22 hours at 35° C. in ambient air.
The colony counts were performed at the start of treatment and 5 hours after treatment. The CFU numbers are log10 transformed before performing calculations.

E. coli AID#172 [2] = experiment: Neutropenic thigh infection model, dose-response and estimation of ED50 (Example 4); format: in vivo, Escherichia coli
Procedure: as §1, with “thigh” for “peritonitis”, “thighs” for “blood and peritoneal fluid”
The thigh infection model is a well-recognized model for studies of antimicrobial effect and tissue penetration as described by S. Gudmundsson & H. Erlensdóttir: Handbook of Animal Models of Infection (1999), ed. by O. Zak & M. A. Sande, Academic Press, San Diego, US and in several publications. Reviewed by D. Andes & C. Craig: Animal model pharmacokinetics and pharmacodynamics: a critical review. International Journal of Antimicrobial Agents 19(4): 261-268.
as §2, with “• 40” for “• 30”, “Copenhagen, Denmark:” for “Copenhagen, Denmark.”, “results: […]” for “results:”
as §3
Colony counts were determined from thighs at 0 and 5 hours. […]

With `C[C@@H](O)[C@H]1C(=O)N2C(C(=O)O)=C(S[C@@H]3CN[C@H](C(=O)N(C)C)C3)[C@H](C)[C@H]12` [meropenem] the “CFU levels in blood and peritoneal fluid compared to vehicle” value (E. coli AID#172 [1]; 40 mg/kg i.v., 5 hours, blood p<0.05, peritoneal fluid p<0.01) was “significant reduction”, the “Clinical score T = 0 hour” value (E. coli AID#172 [1]; Meropenem 40 mg/kg single dose group, score at start of treatment, individual mice) was 1 and the “log10 CFU Mean Blood” value (E. coli AID#172 [1]; Meropenem 40 mg/kg single dose, blood, T = 5, group mean, p < 0.05 vs vehicle) was 2.38* log10 CFU/ml. For the same molecule, the “log10 CFU Blood” value (E. coli AID#172 [1]; Meropenem 40 mg/kg single dose, blood, T = 5, individual mice) was 2.48 log10 CFU/ml and 1.70 log10 CFU/ml and 2.95 log10 CFU/ml, the “Clinical score T = 5 hours” value (E. coli AID#172 [1]; Meropenem 40 mg/kg single dose, individual mice) was 1 (2×) and 0 and the “log10 CFU mean PF” value (E. coli AID#172 [1]; Meropenem 40 mg/kg single dose, peritoneal fluid, T = 5, group mean, p < 0.01 vs vehicle) was 2.64** log10 CFU/ml. The “log10 CFU PF” value (E. coli AID#172 [1]; Meropenem 40 mg/kg single dose, peritoneal fluid, T = 5, individual mice) was 3.92 log10 CFU/ml and 1.70 log10 CFU/ml and 2.30 log10 CFU/ml, the “CFU levels in thigh compared to vehicle” value (E. coli AID#172 [2]; 40 mg/kg i.v., 5 hours) was “slight but not significant reduction” and the “log10 CFU thigh mean” value (E. coli AID#172 [2]; Meropenem 40 mg/kg single dose, thigh, T = 5, group mean without outlier, not significant vs vehicle) was 4.25 log10 CFU/ml. The “log10 CFU thigh” value (E. coli AID#172 [2]; Meropenem 40 mg/kg single dose, thigh, T = 5, individual mice, ¤ value excluded from mean as outlier) was 3.08¤ log10 CFU/ml and 3.81¤ log10 CFU/ml and 4.99 log10 CFU/ml and 3.94 log10 CFU/ml.
